Results: patent publication US20240382465A1, “AROMATIC ACETYLENE DERIVATIVE, AND PREPARATION METHOD THEREFOR AND USE THEREOF” (priority 2021, published 2024)
Converted amounts (≈) assume the structure as drawn.

What was measured:
[1] = molecular target: recombinant Pseudomonas aeruginosa LpxC (Pseudomonas aeruginosa (strain ATCC 15692 / DSM 22644 / CIP 104116 / JCM 14847 / LMG 12228 / 1C / PRS 101 / PAO1), UniProt P47205); test: Inhibition of LpxC enzymatic activity (fluorescamine assay); type: biochemical; settings: recombinant P. aeruginosa LpxC 5 nM, substrate 10 μM, 25° C., 120 minutes; read-out: IC50
Description: The degree of inhibition of the enzymatic activity of recombinant Pseudomonas aeruginosa LpxC by the compounds of the present disclosure under in vitro conditions was determined using the following method.
The experimental procedure is briefly described as follows: The test compound was first dissolved in DMSO to prepare a 10 mM stock solution. The reaction was carried out in a 96-well microplate. First, 20 μL of recombinant Pseudomonas aeruginosa LpxC (purchased from Signalway Antibody, product number AP74647-2) was added to each well, with a final concentration of 5 nM. 5 μL of the compound to be tested was then added, and the compound was diluted 4 times to 8 concentration points with a concentration range of 0.61-10,000 nM. 5 μL of LpxC substrate UDP-3-O—(R-3-hydroxydecanoyl)-GlcNAc (purchased from Biosynth Carbosynth, product number: mu75071) was added, with a final concentration of the substrate of 10 μM. The plate was incubated at 25° C. for 120 minutes. Then 20 μL of 2.0 mg/mL fluorescamine (purchased from sigmaaldrich, product number: F9015, solvent: 1:1 dimethylformamide/acetonitrile) was added to the reaction system, and mixed well for 10 minutes of reaction. Finally, 50 μL of 200 mM sodium phosphate buffer (pH 8.0) was added to terminate the reaction. Reading was carried out using a microplate reader (BMG), and the excitation and emission wavelengths were 390 and 495 nm respectively. By comparing with the fluorescence intensity ratio of the control group ([…]), the percentage inhibition rate of the compound at each concentration was calculated.

E. coli ATCC 25922 = test: Antibacterial activity, MIC by broth microdilution (CLSI); type: cell-based; settings: Escherichia coli, ATCC25922; E. coli ATCC 25922, 35° C., 18 to 24 hours; read-out: MIC(E. coli)
Description: The in vitro minimum inhibitory concentration (MIC) was determined in accordance with the CLSI guidelines, and was measured using the broth microdilution method.
The experimental process is briefly described as follows: The test compound was dissolved in DMSO to prepare a […] stock solution, which was then prepared into 11 twice-diluted 100× high-concentration working solutions (the final concentration of the system was 64 μg/mL-0.06 μg/mL) using DMSO. The strains (K. pneumoniae ATCC13883 and E. coli ATCC 25922) frozen in −80° C. glycerol were inoculated into solid agar medium, placed in an incubator at 35° C. for 18-24 hours of incubation. After the preparation of strains was completed, an appropriate amount of solid plate culture was collected, resuspended in physiological saline, and mixed well. The bacterial suspension was adjusted to a suitable turbidity using a turbidity meter, containing approximately 1×10^8 cfu/mL bacteria. Then the bacterial suspension with the adjusted turbidity was diluted to a bacterial concentration of 5×10^5 cfu/ml using the culture medium for measurement, to complete the preparation of the inoculum solution. 198 μL of the inoculum solution was inoculated into a 96-well plate, and then added with 2 μL of a 100× high-concentration working solution of the compound. Then the 96-well plate was placed at 35° C. for 18 to 24 hours of incubation.

Row | Structure (SMILES) | IC50 [1] [nM] | MIC (E. coli ATCC 25922) [µg/mL]
1 | C[C@H](O)c1nccn1Cc1cc(-c2ccc(C#Cc3ccc(N4CCOCC4)cc3)cc2)on1 [Example 5] | 72.3 | 1 (≈ 2.2 µM)
2 | C[C@H](O)c1nccn1Cc1cc(-c2ccc(C#Cc3ccc(CN4CCOCC4C(=O)O)cc3)cc2)on1 (stereo partly drawn) [Example 20, 4-(4-((4-(3-((2-((S)-1-hydroxyethyl)-1H-imidazol-1-yl)methyl)isoxazol-5-yl)phenyl)ethynyl)benzyl)morpholin-3-carboxylic acid] | 9.86 | 4 (≈ 7.8 µM)
3 | C[C@H](O)c1nccn1Cc1coc(-c2ccc(C#Cc3ccc(CN4CCC(O)CC4)cc3)cc2)n1 [Example 22, (S)-1-(4-((4-(4-((2-(1-hydroxyethyl)-1H-imidazol-1-yl)methyl)oxazol-2-yl)phenyl)ethynyl)benzyl)piperidin-4-ol] | 98.9 | 4 (≈ 8.29 µM)
4 | C[C@H](O)c1nccn1Cc1cc(-c2ccc(C#Cc3ccc(N4CCC(O)CC4)cc3)cc2)on1 [Example 41, (S)-1-(4-((4-(3-((2-(1-hydroxyethyl)-1H-imidazol-1-yl)methyl)isoxazol-5-yl)phenyl)ethynyl)phenyl)piperidin-4-ol] | 26.3 | –
5 | C[C@H](O)c1nccn1Cc1cc(-c2ccc(C#Cc3ccc(C(=O)N4CC(O)C4)cc3)cc2)on1 [Example 68, (S)-(3-hydroxyazetidin-1-yl)(4-((4-(3-((2-(1-hydroxyethyl)-1 H-imidazol-1-yl)methyl)isoxazol-5-yl)phenyl)ethynyl)phenyl)methanone] | 68.3 | –
6 | C[C@H](O)c1nccn1Cc1cc(-c2ccc(C#Cc3ccc(C(=O)NCC(=O)O)cc3)cc2)on1 [Example 74, (S)-(4-((4-(3-((2-(1-hydroxy-ethyl)-1H-imidazol-1-yl)methyl)isoxazol-5-yl)phenyl)ethynyl)benzoyl)glycinate] | 21.2 | –
7 | C[C@H](O)c1nccn1Cc1cc(-c2ccc(C#Cc3ccc(OC4CCC(C(=O)O)CC4)cc3)cc2)on1 (stereo partly drawn) [Example 79, (S)-4-(4-((4-(3-((2-(1-hydroxyethyl)-1H-imidazol-1-yl)methyl)isoxazol-5-yl)phenyl)ethynyl)phenoxy)cyclohexane-1-carboxylic acid] | 42.5 | –
8 | C[C@H](O)c1nccn1Cc1cc(-c2ccc(C#Cc3ccc(OCCN4CCOCC4)cc3)cc2)on1 [Example 80, (S)-1-(1-((5-(4-((4-(2-morpho-linoethoxy)phenyl)ethynyl)phenyl)isoxazol-3-yl)methyl)-1H-imidazol-2-yl)ethan-1-ol] | 64.9 | –
9 | C[C@H](O)c1nccn1Cc1cc(-c2ccc(C#Cc3ccc(S(N)(=O)=O)cc3)cc2)on1 [Example 83, (S)-4-((4-(3-((2-(1-hydroxy-ethyl)-1H-imidazol-1-yl)methyl)isoxazol-5-yl)phenyl)ethynyl) benzenesulfonamide] | 54.7 | –
10 | C[C@H](O)c1nccn1Cc1cc(-c2ccc(C#Cc3ccc(C(C)(C)N4CCOCC4)cc3)cc2)on1 [Example 94, (S)-1-(1-((5-(4-((4-(2-morpho-linopropan-2-yl)phenyl)ethynyl)phenyl)isoxazol-3-yl)methyl)-1H-imidazol-2-yl)ethan-1-ol] | 76.5 | –
11 | C[C@H](O)c1nccn1Cc1cc(-c2ccc(C#Cc3ccc(CN4CCC(O)C(F)(F)C4)cc3)cc2)on1 (stereo partly drawn) [Example 97, 3,3-difluoro-1-(4-((4-(3-((2-((S)-1-hydroxyethyl)-1H-imidazol-1-yl)methyl)isoxazol-5-yl)phenyl)ethynyl)benzyl) piperidin-4-ol] | 31.9 | –
12 | C[C@H](O)c1nccn1Cc1cc(-c2ccc(C#Cc3ccc(Cn4ccnc4)cc3)cc2)on1 [Example 98, (S)-1-(1-((5-(4-((4-((1H-imida-zol-1-yl)methyl)phenyl)ethynyl)phenyl)isoxazol-3-yl)methyl)-1H-imidazol-2-yl)ethan-1-ol] | 78.5 | –
13 | CC(=O)c1ccc(C#Cc2ccc(-c3cc(Cn4ccnc4[C@H](C)O)no3)cc2)cn1 [Example 103, (S)-1-(5-((4-(3-((2-(1-hydroxyethyl)-1H-imidazol-1-yl)methyl)isoxazol-5-yl)phenyl)ethynyl)pyridin-2-yl)ethan-1-one] | 46.8 | –
14 | C[C@H](O)c1nccn1Cc1cc(-c2ccc(C#Cc3ccc(CN4CCOCC4)cc3)cn2)no1 [Example 104, (S)-1-(1-((3-(5-((4-(morpholino-methyl)phenyl)ethynyl)pyridin-2-yl)isoxazol-5-yl)methyl)-1H-imidazol-2-yl)ethan-1-ol] | 58.6 | –
15 | C[C@H](O)c1nccn1Cc1cc(-c2ccc(C#Cc3ccc(C(=O)NCCO)nc3)cc2)on1 [Example 105, (S)-N-(2-hydroxyethyl)-5-((4-(3-((2-(1-hydroxyethyl)-1H-imidazol-1-yl)methyl)isoxazol-5-yl)phenyl)ethynyl) picolinamide] | 22.6 | –
16 | C[C@H](O)c1nccn1Cc1cc(-c2ccc(C#Cc3ccccc3C(=O)O)cc2)on1 [Example 106, (S)-2-((4-(3-((2-(1-hydroxyethyl)-1H-imidazol-1-yl)methyl)isoxazol-5-yl)phenyl)ethynyl) benzoic acid] | 68.9 | –
17 | C[C@H](O)c1nccn1Cc1cc(-c2ccc(C#Cc3ccc(CN4CC(CO)C4)nc3)cc2)on1 [Example 113, (S)-1-(1-((5-(4-((6-((3-(hydroxymethyl)azetidin-1-yl)methyl)pyridin-3-yl)ethynyl)phenyl)isoxazol-3-yl)methyl)-1H-imidazol-2-yl)ethan-1-ol] | 24.6 | –
18 | C[C@H](O)c1nccn1Cc1cc(-c2ccc(C#Cc3ccc(CNCC(=O)O)nc3)cc2)on1 [Example 116] | 47.9 | –
19 | C[C@H](O)c1nccn1Cc1cc(-c2ccc(C#Cc3ccc(CN4CC(C(=O)O)C4)nc3)cc2)on1 [Example 117, (S)-1-((5-((4-(3-((2-(1-hydroxyethyl)-1H-imidazol-1-yl)methyl)isoxazol-5-yl)phenyl)ethynyl)pyridin-2-yl)methyl)azetidin-3-carboxylic acid] | 18.5 | –
20 | C[C@H](O)c1nccn1Cc1cc(-c2ccc(C#Cc3ccc(CN4CC(CC#N)C4)nc3)cc2)on1 [Example 118, (S)-2-(1-((5-((4-(3-((2-(1-hydroxyethyl)-1H-imidazol-1-yl)methyl)isoxazol-5-yl)phenyl)ethynyl)pyridin-2-yl)methyl)azetidin-3-yl)acetonitrile] | 16.5 | –
21 | C[C@H](O)c1nccn1Cc1cc(-c2ccc(C#Cc3ccc(CN4CC(C#N)C4)nc3)cc2)on1 [Example 119, (S)-1-((5-((4-(3-((2-(1-hydroxyethyl)-1H-imidazol-1-yl)methyl)isoxazol-5-yl)phenyl)ethynyl)pyridin-2-yl)methyl)azetidin-3-carbonitrile] | 7.42 | –
22 | C[C@H](O)c1nccn1Cc1cc(-c2ccc(C#Cc3ccc(C#N)nc3)cc2)on1 [Example 120, (S)-5-((4-(3-((2-(1-hydroxyethyl)-1H-imidazol-1-yl)methyl)isoxazol-5-yl)phenyl)ethynyl)picolinonitrile] | 77.1 | –
23 | C[C@H](O)c1nccn1Cc1cc(-c2ccc(C#Cc3ccc(CN4CC(O)C4)nc3)cc2)on1 [Example 121, (S)-1-((5-((4-(3-((2-(1-hydroxyethyl)-1H-imidazol-1-yl)methyl)isoxazol-5-yl)phenyl)ethynyl)pyridin-2-yl)methyl)azetidin-3-ol] | 22.3 | –
24 | C[C@H](O)c1nccn1Cc1cc(-c2ccc(C#Cc3ccc(CN4CC(CC(N)=O)C4)nc3)cc2)on1 [Example 122, (S)-2-(1-((5-((4-(3-((2-(1-hydroxyethyl)-1H-imidazol-1-yl)methyl)isoxazol-5-yl)phenyl)ethynyl)pyridin-2-yl)methyl)azetidin-3-yl)acetamide] | 6.71 | –
25 | C[C@H](O)c1nccn1Cc1cc(-c2ccc(C#Cc3ccc(CN4CC(C(N)=O)C4)nc3)cc2)on1 [Example 123, (S)-1-((5-((4-(3-((2-(1-hydroxyethyl)-1H-imidazol-1-yl)methyl)isoxazol-5-yl)phenyl)ethynyl)pyridin-2-yl)methyl)azetidin-3-carboxamide] | 8.22 | –
